Data taken from the kinase profiling compilation of Christmann-Franck et al. (2016).

Legend:
Experiment in all cases: KINOMEscan competition binding
Conditions in all cases: compound 1.0 µM
BRSK2 (human) = BRSK2 (human) (UniProt Q8IWQ3)
CAMK2A (human) = CAMK2A (human) (UniProt Q9UQM7)
CAMK4 (human) = CAMK4 (human) (UniProt Q16566)
CDC42BPA (human) = CDC42BPA (human) (UniProt Q5VT25)
CDK13 (human) = CDK13 (human) (UniProt Q14004)
DSTYK (human) = DSTYK (human) (UniProt Q6XUX3)
[1] = system: EGFR (human), P00533 [L861Q]
EIF2AK1 (human) = EIF2AK1 (human) (UniProt Q9BQI3)
EPHA6 (human) = EPHA6 (human) (UniProt Q9UF33)
[2] = system: FLT3 (human), P36888 [D835H]
[3] = system: FLT3 (human), P36888 [N841I]
IGF1R (human) = IGF1R (human) (UniProt P08069)
IRAK3 (human) = IRAK3 (human) (UniProt Q9Y616)
KDR (human) = KDR (human) (UniProt P35968)
LATS2 (human) = LATS2 (human) (UniProt Q9NRM7)
MAK (human) = MAK (human) (UniProt P20794)
MAP3K1 (human) = MAP3K1 (human) (UniProt Q13233)
MAPK13 (human) = MAPK13 (human) (UniProt O15264)
MERTK (human) = MERTK (human) (UniProt Q12866)
[4] = system: MET (human), P08581 [Y1235D]
MST1R (human) = MST1R (human) (UniProt Q04912)
NEK2 (human) = NEK2 (human) (UniProt P51955)
PDGFRA (human) = PDGFRA (human) (UniProt P16234)
[5] = system: PIK3CA (human), P42336 [H1047Y]
PIK3CB (human) = PIK3CB (human) (UniProt P42338)
PKMYT1 (human) = PKMYT1 (human) (UniProt Q99640)
PKN2 (human) = PKN2 (human) (UniProt Q16513)
PLK1 (human) = PLK1 (human) (UniProt P53350)
PRKAA1 (human) = PRKAA1 (human) (UniProt Q13131)
PRKD3 (human) = PRKD3 (human) (UniProt O94806)
[6] = system: RET (human), P07949 [V804L]
STK32A (human) = STK32A (human) (UniProt Q8WU08)
SYK (human) = SYK (human) (UniProt P43405)
TEK (human) = TEK (human) (UniProt Q02763)
TGFBR1 (human) = TGFBR1 (human) (UniProt P36897)
TXK (human) = TXK (human) (UniProt P42681)
[7] = molecular target: TYK2 JH1 catalytic (human) (UniProt P29597)
ULK3 (human) = ULK3 (human) (UniProt Q6PHR2)
YES1 (human) = YES1 (human) (UniProt P07947)

IRAK3 (human), sequence (Q9Y616 whole entry, looked up): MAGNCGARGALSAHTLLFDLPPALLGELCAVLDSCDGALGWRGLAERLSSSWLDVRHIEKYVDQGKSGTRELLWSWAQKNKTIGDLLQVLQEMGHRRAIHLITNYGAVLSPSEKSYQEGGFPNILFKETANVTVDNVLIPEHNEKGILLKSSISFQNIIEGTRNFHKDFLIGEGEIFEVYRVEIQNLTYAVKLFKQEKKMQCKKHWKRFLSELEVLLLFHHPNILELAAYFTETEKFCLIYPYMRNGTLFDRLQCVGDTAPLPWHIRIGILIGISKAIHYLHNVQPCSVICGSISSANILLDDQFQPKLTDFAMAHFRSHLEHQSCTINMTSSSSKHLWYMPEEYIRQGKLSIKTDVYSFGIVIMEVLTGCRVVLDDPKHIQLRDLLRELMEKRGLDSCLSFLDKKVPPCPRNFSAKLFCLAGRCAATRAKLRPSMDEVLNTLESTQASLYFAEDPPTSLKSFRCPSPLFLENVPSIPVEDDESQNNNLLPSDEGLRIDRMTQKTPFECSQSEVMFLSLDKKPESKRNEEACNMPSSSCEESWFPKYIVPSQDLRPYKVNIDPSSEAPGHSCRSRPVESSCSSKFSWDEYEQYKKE
MAPK13 (human), sequence (O15264 whole entry, looked up): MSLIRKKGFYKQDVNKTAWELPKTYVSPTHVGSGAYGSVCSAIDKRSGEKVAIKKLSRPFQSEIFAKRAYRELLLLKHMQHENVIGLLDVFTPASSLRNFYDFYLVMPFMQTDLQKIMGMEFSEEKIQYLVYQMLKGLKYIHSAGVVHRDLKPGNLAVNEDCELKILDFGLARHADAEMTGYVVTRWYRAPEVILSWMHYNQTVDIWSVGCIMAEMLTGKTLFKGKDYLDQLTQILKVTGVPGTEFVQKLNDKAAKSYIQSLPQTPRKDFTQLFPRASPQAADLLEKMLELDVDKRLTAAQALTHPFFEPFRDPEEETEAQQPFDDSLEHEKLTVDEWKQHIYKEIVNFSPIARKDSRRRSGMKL
TGFBR1 (human), sequence (P36897 whole entry, looked up): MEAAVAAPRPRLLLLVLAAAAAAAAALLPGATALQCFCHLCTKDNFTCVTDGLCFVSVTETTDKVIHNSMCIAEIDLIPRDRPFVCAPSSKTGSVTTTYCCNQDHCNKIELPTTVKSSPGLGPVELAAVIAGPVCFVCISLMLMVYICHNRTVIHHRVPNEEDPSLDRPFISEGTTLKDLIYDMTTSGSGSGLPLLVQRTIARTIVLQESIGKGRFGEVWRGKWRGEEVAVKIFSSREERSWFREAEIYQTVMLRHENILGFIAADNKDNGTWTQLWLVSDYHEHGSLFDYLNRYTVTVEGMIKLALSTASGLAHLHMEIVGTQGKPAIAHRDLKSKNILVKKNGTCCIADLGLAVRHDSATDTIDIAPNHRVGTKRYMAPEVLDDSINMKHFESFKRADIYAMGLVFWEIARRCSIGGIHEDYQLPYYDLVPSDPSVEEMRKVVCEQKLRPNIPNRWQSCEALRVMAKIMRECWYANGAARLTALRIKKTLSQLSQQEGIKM
MST1R (human), sequence (Q04912 whole entry, looked up): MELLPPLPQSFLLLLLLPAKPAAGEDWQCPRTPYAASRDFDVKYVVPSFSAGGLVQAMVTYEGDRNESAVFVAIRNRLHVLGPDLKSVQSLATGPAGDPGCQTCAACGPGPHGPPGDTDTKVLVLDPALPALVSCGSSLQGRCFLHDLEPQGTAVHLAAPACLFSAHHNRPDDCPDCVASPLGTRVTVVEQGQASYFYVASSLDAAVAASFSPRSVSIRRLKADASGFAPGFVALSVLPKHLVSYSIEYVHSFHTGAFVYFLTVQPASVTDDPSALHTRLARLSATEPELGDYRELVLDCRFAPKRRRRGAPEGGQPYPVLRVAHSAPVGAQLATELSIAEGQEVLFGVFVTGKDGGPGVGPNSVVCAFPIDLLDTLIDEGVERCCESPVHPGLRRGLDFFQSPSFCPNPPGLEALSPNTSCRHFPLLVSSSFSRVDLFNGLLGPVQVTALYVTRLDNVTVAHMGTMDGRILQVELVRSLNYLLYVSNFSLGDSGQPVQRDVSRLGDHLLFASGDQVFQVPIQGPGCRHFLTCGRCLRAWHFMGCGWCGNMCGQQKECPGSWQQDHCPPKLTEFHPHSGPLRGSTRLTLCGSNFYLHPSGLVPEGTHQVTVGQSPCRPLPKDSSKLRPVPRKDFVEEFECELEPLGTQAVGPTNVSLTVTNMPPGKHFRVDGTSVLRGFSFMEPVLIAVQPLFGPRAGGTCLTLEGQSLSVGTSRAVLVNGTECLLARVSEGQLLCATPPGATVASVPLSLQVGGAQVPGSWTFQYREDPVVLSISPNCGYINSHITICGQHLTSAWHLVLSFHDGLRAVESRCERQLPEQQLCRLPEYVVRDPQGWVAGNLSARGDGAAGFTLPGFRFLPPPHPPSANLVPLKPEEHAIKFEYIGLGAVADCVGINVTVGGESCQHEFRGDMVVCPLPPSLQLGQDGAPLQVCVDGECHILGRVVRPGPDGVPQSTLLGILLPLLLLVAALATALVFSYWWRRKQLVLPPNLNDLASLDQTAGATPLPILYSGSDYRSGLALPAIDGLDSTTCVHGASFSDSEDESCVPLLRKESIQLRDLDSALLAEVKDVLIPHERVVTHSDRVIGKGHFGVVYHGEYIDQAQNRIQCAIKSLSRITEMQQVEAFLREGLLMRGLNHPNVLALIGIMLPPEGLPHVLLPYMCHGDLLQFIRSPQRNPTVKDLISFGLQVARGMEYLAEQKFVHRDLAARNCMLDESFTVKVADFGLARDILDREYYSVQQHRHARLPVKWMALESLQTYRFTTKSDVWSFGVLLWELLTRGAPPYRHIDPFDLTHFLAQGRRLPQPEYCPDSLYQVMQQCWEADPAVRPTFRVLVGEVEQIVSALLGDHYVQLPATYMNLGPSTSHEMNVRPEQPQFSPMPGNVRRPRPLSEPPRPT
NEK2 (human), sequence (P51955 whole entry, looked up): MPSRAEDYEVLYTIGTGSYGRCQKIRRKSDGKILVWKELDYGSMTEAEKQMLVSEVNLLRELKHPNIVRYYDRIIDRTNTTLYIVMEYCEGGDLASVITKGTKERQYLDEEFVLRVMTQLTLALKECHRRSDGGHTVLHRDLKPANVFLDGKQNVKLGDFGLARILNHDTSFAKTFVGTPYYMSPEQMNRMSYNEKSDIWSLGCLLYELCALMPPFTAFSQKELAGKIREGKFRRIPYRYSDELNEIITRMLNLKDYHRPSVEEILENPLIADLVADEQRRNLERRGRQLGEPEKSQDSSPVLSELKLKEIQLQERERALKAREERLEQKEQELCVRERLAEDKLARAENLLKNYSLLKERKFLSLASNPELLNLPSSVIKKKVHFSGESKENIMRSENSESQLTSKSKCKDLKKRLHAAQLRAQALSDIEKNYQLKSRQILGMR
TXK (human), sequence (P42681 whole entry, looked up): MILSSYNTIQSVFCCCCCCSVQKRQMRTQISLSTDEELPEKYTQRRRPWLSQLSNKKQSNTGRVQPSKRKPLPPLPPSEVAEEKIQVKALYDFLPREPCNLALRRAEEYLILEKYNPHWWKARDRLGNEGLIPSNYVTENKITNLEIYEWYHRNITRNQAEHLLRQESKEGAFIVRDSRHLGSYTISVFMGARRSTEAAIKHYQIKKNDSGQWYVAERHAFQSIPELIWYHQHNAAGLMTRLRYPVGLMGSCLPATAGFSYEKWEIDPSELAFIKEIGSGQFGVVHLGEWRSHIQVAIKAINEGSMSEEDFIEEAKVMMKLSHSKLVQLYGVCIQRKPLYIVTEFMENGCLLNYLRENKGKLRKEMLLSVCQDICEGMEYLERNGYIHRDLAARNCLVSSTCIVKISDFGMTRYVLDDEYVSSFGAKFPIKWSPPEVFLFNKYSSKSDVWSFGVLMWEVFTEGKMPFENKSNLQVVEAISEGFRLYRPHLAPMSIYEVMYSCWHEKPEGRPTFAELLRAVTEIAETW
STK32A (human), sequence (Q8WU08 whole entry, looked up): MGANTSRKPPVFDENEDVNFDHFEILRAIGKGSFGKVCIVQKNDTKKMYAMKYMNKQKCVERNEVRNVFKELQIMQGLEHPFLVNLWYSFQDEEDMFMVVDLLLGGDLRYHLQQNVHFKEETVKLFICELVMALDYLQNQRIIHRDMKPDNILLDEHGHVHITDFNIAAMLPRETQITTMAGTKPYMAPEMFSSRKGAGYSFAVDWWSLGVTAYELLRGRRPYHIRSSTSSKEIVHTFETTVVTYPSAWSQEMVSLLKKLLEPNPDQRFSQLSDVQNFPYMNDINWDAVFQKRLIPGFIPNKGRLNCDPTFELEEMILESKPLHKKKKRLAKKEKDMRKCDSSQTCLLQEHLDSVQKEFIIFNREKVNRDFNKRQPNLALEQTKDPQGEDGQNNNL
CAMK4 (human), sequence (Q16566 whole entry, looked up): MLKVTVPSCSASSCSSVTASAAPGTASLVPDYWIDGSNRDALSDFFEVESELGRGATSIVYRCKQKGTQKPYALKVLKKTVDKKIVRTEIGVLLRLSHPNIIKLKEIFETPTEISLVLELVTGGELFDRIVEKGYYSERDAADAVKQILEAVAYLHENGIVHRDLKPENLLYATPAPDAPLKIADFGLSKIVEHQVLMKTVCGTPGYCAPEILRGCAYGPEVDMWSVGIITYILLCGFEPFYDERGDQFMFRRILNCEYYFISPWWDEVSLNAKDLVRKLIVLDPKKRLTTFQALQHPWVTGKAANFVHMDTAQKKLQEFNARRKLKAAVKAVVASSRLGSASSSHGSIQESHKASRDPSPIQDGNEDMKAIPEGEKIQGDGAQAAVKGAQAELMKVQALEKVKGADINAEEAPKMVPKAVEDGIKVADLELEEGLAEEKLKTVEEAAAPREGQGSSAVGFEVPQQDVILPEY

`CNc1nc(Nc2ccc(C(=O)N3CCOCC3)cc2OC)ncc1Cl` was tested, and the kinase still bound, per cent of control (BRSK2 (human)) was 51%, the kinase still bound, per cent of control (CAMK2A (human)) was 76% and the kinase still bound, per cent of control (CAMK4 (human)) was 100%. It also gave a kinase still bound, per cent of control (CDC42BPA (human)) of 97%, a residual activity (CDK13 (human)) of 89% and a kinase still bound, per cent of control (DSTYK (human)) of 100%. It also gave a kinase still bound, per cent of control [1] of 100%, a kinase still bound, per cent of control (EIF2AK1 (human)) of 100% and a kinase still bound, per cent of control (EPHA6 (human)) of 100%. For the same compound, the kinase still bound, per cent of control [2] was 78%, the kinase still bound, per cent of control [3] was 73% and the residual activity (IGF1R (human)) was 100%. The kinase still bound, per cent of control (IRAK3 (human)) was 88%, the kinase still bound, per cent of control (KDR (human)) was 87% and the kinase still bound, per cent of control (LATS2 (human)) was 100%. The kinase still bound, per cent of control (MAK (human)) was 100%, the kinase still bound, per cent of control (MAP3K1 (human)) was 65% and the kinase still bound, per cent of control (MAPK13 (human)) was 94%. The kinase still bound, per cent of control (MERTK (human)) was 100%, the kinase still bound, per cent of control [4] was 100% and the kinase still bound, per cent of control (MST1R (human)) was 100%. The kinase still bound, per cent of control (NEK2 (human)) was 78%, the kinase still bound, per cent of control (PDGFRA (human)) was 87% and the kinase still bound, per cent of control [5] was 85%. The kinase still bound, per cent of control (PIK3CB (human)) was 100%, the kinase still bound, per cent of control (PKMYT1 (human)) was 97% and the kinase still bound, per cent of control (PKN2 (human)) was 79%. It also gave a kinase still bound, per cent of control (PLK1 (human)) of 100%, a kinase still bound, per cent of control (PRKAA1 (human)) of 95% and a kinase still bound, per cent of control (PRKD3 (human)) of 98%. It also gave a kinase still bound, per cent of control [6] of 99%, a kinase still bound, per cent of control (STK32A (human)) of 100% and a kinase still bound, per cent of control (SYK (human)) of 100%. For the same compound, the kinase still bound, per cent of control (TEK (human)) was 100%, the kinase still bound, per cent of control (TGFBR1 (human)) was 100% and the kinase still bound, per cent of control (TXK (human)) was 100%. For the same compound, the kinase still bound, per cent of control [7] was 73%, the kinase still bound, per cent of control (ULK3 (human)) was 83% and the kinase still bound, per cent of control (YES1 (human)) was 100%.
